Measured values: PMC6437697 (Journal of Medicinal Chemistry, 2019)

How the values were obtained:
Test in all cases: KINOMEscan
Type in all cases: binding
Details in all cases: read-out: % control activity remaining
[1] = target: T1, p38-gamma (Homo sapiens, UniProt P53778)
T1 construct: purchased Eurofins DiscoverX KINOMEscan
T1 sequence (P53778 1-367): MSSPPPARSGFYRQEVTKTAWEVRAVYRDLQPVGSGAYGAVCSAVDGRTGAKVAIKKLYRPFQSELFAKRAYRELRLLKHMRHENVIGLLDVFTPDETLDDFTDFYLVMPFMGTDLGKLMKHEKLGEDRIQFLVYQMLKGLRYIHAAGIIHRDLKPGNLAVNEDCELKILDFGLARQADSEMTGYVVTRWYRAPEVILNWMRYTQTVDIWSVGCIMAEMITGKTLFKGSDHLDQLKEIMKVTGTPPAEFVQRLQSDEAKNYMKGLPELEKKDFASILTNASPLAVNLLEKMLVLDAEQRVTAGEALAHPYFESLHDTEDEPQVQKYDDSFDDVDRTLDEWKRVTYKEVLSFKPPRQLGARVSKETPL

[2] = target: T2, CDK3 (Homo sapiens, UniProt Q00526)
T2 construct: purchased Eurofins DiscoverX KINOMEscan

[3] = target: T3, MARK2 (Homo sapiens, UniProt Q7KZI7)
T3 construct: purchased Eurofins DiscoverX KINOMEscan

[4] = target: T4, FGFR3 (Homo sapiens, UniProt P22607)
T4 construct: purchased Eurofins DiscoverX KINOMEscan

[5] = target: T5, MAP3K15 (Homo sapiens, UniProt Q6ZN16)
T5 construct: purchased Eurofins DiscoverX KINOMEscan
T5 sequence (Q6ZN16 1-1313): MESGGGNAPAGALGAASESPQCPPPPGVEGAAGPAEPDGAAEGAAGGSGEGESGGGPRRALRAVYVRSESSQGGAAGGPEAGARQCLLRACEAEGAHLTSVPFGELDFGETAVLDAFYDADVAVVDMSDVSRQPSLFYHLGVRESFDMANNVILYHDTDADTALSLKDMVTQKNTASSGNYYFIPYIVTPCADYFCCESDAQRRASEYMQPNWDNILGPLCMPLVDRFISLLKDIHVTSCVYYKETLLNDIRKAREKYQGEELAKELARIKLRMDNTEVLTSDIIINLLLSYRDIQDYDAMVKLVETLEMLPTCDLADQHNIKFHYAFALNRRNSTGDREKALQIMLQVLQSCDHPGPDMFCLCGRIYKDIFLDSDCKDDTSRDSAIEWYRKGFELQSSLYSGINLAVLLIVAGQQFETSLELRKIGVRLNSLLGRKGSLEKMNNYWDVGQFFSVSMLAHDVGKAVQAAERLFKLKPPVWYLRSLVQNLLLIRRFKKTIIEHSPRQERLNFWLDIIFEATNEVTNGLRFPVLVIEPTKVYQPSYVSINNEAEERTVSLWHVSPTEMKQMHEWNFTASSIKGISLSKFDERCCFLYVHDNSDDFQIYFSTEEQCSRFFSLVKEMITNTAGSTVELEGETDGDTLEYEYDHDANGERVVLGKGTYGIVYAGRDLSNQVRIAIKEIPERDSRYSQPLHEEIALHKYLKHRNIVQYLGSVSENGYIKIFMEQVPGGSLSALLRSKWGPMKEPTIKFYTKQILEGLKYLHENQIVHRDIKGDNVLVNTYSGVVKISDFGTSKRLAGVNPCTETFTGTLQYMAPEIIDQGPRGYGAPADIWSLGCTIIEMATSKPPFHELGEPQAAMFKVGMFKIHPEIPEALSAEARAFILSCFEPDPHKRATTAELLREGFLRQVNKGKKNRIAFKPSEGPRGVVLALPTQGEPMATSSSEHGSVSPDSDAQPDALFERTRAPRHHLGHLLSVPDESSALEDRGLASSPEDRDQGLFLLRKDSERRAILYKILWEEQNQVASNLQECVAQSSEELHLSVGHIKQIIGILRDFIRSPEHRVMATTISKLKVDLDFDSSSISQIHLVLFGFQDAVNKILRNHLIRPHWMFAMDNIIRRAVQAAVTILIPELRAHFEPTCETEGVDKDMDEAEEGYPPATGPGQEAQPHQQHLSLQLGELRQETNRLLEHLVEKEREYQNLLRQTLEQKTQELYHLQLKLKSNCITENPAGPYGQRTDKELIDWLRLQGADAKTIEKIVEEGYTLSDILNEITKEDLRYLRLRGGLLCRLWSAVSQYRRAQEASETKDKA

[6] = target: T6, FLT3(K663Q) (Homo sapiens, UniProt P36888, K663Q)
T6 construct: purchased Eurofins DiscoverX KINOMEscan
T6 sequence (P36888 27-993 K663Q): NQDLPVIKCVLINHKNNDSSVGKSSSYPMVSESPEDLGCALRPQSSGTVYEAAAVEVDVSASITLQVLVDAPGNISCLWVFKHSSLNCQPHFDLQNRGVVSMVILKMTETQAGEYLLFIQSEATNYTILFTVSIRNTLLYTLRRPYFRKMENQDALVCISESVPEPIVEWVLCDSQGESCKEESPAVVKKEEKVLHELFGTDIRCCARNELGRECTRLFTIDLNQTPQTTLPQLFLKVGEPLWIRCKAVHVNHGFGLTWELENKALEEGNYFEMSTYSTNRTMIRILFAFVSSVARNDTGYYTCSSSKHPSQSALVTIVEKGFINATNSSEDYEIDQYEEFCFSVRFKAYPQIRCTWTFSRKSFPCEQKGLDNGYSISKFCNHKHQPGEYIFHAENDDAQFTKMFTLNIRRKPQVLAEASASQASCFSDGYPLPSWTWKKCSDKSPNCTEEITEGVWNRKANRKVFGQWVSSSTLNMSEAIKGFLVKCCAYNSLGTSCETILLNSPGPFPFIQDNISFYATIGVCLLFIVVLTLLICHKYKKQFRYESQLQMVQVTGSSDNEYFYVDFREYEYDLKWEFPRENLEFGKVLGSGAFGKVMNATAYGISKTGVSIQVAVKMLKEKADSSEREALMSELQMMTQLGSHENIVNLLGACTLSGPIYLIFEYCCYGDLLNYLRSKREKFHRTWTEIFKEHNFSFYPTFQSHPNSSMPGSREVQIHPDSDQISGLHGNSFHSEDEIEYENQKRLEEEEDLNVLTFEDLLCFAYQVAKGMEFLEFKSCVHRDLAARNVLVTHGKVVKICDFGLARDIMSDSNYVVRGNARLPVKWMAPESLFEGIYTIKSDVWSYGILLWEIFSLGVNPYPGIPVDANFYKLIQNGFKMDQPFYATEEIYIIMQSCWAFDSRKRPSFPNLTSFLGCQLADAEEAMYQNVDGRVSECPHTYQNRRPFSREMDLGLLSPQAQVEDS

[7] = target: T7, PIK3CA(M1043I) (Homo sapiens, UniProt P42336, M1043I)
T7 construct: purchased Eurofins DiscoverX KINOMEscan

[8] = target: T8, RET(M918T) (Homo sapiens, UniProt P07949, M918T)
T8 construct: purchased Eurofins DiscoverX KINOMEscan

[9] = target: T9, MINK (Homo sapiens, UniProt Q8N4C8)
T9 construct: purchased Eurofins DiscoverX KINOMEscan
T9 sequence (Q8N4C8 whole entry): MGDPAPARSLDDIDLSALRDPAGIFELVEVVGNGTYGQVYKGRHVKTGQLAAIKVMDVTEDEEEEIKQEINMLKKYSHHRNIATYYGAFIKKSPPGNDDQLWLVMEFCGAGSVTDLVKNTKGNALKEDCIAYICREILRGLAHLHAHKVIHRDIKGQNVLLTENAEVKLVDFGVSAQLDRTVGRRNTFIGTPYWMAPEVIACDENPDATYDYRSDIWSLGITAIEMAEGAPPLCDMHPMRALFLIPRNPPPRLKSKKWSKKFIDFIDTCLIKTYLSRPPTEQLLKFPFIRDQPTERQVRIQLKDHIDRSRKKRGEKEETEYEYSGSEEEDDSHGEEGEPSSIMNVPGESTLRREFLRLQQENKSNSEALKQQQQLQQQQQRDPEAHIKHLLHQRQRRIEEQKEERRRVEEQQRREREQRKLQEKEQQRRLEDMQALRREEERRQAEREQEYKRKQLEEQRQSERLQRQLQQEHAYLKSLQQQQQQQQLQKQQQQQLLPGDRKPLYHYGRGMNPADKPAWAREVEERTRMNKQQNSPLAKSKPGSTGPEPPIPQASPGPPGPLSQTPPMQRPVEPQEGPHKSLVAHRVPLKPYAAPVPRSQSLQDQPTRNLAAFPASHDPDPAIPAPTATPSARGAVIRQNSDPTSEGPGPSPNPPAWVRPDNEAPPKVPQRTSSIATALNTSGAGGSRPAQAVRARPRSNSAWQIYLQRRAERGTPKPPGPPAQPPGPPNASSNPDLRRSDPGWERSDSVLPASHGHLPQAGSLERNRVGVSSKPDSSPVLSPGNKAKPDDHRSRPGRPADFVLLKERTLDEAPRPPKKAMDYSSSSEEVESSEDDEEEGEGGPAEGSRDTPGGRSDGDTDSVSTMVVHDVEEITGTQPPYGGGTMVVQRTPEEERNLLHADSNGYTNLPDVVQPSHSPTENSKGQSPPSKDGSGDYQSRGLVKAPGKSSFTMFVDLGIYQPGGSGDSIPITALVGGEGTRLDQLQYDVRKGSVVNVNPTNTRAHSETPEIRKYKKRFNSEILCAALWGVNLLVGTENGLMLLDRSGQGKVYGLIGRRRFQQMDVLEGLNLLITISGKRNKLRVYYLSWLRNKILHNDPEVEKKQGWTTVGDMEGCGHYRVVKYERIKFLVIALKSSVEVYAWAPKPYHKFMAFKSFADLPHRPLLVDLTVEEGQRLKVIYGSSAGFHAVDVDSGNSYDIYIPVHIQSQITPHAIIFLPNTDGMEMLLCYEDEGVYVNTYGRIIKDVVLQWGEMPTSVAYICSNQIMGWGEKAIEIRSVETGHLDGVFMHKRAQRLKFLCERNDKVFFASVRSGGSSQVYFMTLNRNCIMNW

T3 sequence (Q7KZI7 whole entry): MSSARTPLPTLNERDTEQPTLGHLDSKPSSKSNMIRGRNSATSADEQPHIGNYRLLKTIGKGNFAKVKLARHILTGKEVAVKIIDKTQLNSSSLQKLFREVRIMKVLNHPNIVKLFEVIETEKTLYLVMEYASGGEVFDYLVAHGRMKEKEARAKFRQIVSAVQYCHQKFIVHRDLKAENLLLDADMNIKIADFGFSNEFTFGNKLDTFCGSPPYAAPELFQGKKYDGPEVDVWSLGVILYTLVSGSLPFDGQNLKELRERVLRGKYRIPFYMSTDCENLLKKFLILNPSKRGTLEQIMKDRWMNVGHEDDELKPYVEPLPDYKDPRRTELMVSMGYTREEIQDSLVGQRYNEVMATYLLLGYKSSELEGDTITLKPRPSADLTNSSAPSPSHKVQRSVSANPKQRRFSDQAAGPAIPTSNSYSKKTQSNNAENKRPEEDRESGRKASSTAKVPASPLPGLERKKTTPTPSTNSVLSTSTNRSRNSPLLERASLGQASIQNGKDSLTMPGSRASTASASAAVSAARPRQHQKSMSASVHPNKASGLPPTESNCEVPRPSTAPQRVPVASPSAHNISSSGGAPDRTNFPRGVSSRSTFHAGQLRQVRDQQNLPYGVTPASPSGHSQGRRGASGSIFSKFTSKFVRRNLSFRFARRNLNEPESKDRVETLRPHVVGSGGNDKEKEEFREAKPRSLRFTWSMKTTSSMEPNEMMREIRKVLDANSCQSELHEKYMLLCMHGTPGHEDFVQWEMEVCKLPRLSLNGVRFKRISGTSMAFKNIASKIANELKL
T2 sequence (Q00526 whole entry): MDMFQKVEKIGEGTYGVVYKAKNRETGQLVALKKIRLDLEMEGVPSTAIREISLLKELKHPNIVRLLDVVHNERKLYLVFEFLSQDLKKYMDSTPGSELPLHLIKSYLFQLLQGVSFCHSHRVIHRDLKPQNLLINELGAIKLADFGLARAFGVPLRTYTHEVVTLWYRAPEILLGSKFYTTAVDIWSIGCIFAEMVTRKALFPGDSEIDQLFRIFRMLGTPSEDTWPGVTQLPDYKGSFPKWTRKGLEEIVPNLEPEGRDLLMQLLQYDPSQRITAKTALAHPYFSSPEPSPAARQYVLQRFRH
T7 sequence (P42336 whole entry M1043I): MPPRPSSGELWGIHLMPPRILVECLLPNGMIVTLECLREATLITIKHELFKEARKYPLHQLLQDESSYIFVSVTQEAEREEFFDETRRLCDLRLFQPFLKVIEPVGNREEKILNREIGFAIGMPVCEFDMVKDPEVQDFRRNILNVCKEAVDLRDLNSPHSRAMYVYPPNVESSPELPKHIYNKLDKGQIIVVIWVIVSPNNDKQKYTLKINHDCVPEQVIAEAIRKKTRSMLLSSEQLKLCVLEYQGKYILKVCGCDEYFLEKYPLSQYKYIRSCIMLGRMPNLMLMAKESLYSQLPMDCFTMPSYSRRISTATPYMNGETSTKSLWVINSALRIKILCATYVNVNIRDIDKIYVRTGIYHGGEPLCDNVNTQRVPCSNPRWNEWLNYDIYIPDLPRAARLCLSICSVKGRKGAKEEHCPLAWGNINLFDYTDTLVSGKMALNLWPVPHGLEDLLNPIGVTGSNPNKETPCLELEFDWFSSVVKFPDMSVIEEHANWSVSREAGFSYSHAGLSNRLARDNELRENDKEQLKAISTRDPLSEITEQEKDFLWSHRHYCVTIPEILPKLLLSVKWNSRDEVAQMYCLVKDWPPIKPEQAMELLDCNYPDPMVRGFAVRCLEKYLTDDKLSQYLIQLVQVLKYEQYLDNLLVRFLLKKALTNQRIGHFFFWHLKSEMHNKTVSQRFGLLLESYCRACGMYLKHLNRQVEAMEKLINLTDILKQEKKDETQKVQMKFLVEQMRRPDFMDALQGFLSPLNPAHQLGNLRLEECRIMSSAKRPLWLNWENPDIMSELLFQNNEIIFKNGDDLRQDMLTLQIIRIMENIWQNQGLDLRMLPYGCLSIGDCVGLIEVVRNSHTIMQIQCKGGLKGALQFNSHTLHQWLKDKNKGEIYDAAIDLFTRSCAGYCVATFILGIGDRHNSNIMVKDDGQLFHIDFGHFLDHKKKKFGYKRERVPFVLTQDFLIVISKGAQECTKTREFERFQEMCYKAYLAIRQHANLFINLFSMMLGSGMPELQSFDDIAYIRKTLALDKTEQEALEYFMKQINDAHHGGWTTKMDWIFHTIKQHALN
T8 sequence (P07949 29-1114 M918T): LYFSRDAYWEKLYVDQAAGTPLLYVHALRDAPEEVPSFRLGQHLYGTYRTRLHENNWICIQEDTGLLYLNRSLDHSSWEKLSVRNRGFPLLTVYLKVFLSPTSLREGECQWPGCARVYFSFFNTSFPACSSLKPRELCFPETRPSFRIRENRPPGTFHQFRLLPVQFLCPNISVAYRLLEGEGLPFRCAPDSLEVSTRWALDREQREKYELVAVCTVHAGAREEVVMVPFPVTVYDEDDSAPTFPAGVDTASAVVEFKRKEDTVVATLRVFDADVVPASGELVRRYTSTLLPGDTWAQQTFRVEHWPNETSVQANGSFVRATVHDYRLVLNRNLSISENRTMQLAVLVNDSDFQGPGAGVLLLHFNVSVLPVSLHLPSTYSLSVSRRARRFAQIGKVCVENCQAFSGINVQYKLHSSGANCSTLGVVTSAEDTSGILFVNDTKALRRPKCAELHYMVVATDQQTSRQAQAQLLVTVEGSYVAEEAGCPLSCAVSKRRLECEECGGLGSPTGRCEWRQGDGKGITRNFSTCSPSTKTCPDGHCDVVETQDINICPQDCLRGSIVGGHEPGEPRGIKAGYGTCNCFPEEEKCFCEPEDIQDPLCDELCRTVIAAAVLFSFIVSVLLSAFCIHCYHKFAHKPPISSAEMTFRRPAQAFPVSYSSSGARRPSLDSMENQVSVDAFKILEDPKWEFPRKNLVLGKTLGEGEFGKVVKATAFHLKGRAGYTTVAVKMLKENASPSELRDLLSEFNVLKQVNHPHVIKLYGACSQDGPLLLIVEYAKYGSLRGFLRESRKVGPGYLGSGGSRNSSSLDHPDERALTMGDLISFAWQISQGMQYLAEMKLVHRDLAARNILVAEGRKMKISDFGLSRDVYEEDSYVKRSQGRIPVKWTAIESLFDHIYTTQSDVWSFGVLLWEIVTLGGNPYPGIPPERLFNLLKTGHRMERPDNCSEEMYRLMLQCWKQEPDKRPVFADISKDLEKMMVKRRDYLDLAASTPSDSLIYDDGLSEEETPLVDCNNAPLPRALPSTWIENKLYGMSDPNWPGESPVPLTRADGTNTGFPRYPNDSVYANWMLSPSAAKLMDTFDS

Work on Clc1cc(NCC2CC2)c2ncc(-c3ccc4[nH]ncc4c3)n2n1 [compound 2, 6-Chloro-N-(cyclopropylmethyl)-3-(1H-indazol-5-yl)imidazo[1,2-b]pyridazin-8-amine] yielded a remaining binding at 1 µM [1] of 73%, a remaining binding at 1 µM [2] of 95% and a remaining binding at 1 µM [3] of 96%. For the same compound, the remaining binding at 1 µM [4] was 90%, the remaining binding at 1 µM [5] was 83% and the remaining binding at 1 µM [6] was 3.8%. For the same compound, the remaining binding at 1 µM [7] was 59%, the remaining binding at 1 µM [8] was 100% and the remaining binding at 1 µM [9] was 72%.

Compound O=C(CN1CCOCC1)N[C@H]1CC[C@H](Nc2cc(Cl)nn3c(-c4ccc5[nH]ncc5c4)cnc23)CC1 [compound 26] has a remaining binding at 1 µM [1] of 91%, a remaining binding at 1 µM [2] of 90% and a remaining binding at 1 µM [3] of 88%. For the same compound, the remaining binding at 1 µM [4] was 94%, the remaining binding at 1 µM [5] was 98% and the remaining binding at 1 µM [6] was 13%. It also gave a remaining binding at 1 µM [7] of 81%, a remaining binding at 1 µM [8] of 92% and a remaining binding at 1 µM [9] of 57%.

Work on CN1CCC(CNc2cc(Cl)nn3c(-c4cc5nc(Nc6ccccc6)[nH]c5cc4F)cnc23)CC1 [compound 31, 6-Chloro-3-(6-fluoro-2-(phenylamino)-1H-benzo[d]imidazol-5-yl)-N-((1-methylpiperidin-4-yl)methyl)imidazo[1,2-b]pyridazin-8-amine] yielded a remaining binding at 1 µM [1] of 83%, a remaining binding at 1 µM [2] of 97% and a remaining binding at 1 µM [3] of 100%. The remaining binding at 1 µM [4] was 91%, the remaining binding at 1 µM [5] was 100% and the remaining binding at 1 µM [6] was 83%. It also gave a remaining binding at 1 µM [7] of 78%, a remaining binding at 1 µM [8] of 80% and a remaining binding at 1 µM [9] of 87%.
